Measurements taken from publication PMC5171801, “Identification and Characterization of Roseltide, a Knottin-type Neutrophil Elastase Inhibitor Derived from Hibiscus sabdariffa” (Scientific Reports, 2016).
Ends that are not written are not given here.

How the values were obtained:
PAR2-cAMP-CHO cells = experiment: Glosensor cAMP assay, neutrophil elastase-stimulated cAMP accumulation; type: cell-based, Chinese Hamster; settings: co-incubation of HNE with peptide; CHO-K1 co-expressing PAR2 and Glosensor cAMP biosensor; luminescence 20 min, area under the curve; n = 3
Method: Huh7 (human liver carcinoma cells), A549 (human lung adenocarcinoma epithelial cells) cells, and Chinese Hamster Ovary-K1 cells (CHO-K1) were cultured in Dulbecco’s Modified Eagle’s Medium (DMEM)/Ham’s F12 containing 15 mM HEPES and L-glutamine and supplemented with 10% fetal bovine serum, 100 U/mL of penicillin, and streptomycin. The cells were grown in a 5% CO2 humidified incubator at 37 °C. CHO-K1 cells were transfected with pGlosensor-20F plasmid by electroporation and selected using 500 μg/mL hygromycin. CHO-K1 cells stably expressing the pGlosensor-20F construct (cAMP-CHO) were then transfected with pCMV6-XL5 encoding PAR2 receptor (NM 005242.3) and selected using 500 μg/mL G418. Stable cell lines co-expressing both pGlosensor-20F and PAR2 receptor constructs (PAR2-cAMP-CHO) were maintained with 500 μg/mL hygromycin and 500 μg/mL G418.
Glosensor cAMP assays were performed according to the manufacturer’s instructions. […] Luminescent intensity was measured using a microplate reader (Tecan Infinite 200 Pro, Switzerland); the plate was pre-read for 30 s to establish basal luminescent level. Following treatment, luminescent levels were continuously monitored for 20 min. The results are presented as fold change relative to basal luminescent levels and were quantified using the area under the curve.

[1] = biological target: T1, Human neutrophil elastase (HNE) (Homo sapiens, UniProt P08246); experiment: Human neutrophil elastase inhibition assay; type: biochemical; settings: 1.75 U/mL HNE, 0.6 mM N-Methoxysuccinyl-Ala-Ala-Pro-Val p-nitroanilide, 100 mM Tris buffer pH 8.0, 37 °C, absorbance 405 nm for 1 h, normalized initial velocity, mean n = 3; read-out: IC50, enzymatic activity of human neutrophil elastase
T1 construct: purchased Sigma-Aldrich or ThermoFisher Scientific (general statement only)
T1 sequence (P08246 30-267): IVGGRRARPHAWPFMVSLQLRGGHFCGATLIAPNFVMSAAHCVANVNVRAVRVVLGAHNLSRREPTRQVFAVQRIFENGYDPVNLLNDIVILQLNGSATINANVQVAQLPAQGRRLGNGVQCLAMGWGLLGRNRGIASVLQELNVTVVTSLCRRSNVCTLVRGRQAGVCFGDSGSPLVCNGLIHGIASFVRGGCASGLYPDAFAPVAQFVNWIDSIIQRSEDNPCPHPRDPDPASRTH
Method: Human neutrophil elastase (HNE) activity was determined by measuring the release of p-nitroanilide at 405 nm at 37 °C using N-Methoxysuccinyl-Ala-Ala-Pro-Val p-nitroanilide as substrates. Purified roseltide rT1 was incubated with 1.75 U/mL HNE and 0.6 mM substrate in 100 mM Tris buffer (pH 8.0) at 37 °C; absorbance was measured continuously for 1 h. […] The results were presented as normalized initial velocity.

Human serum stability = type: in vitro ADME; settings: 0.1 M peptide, 25% human serum in DMEM without phenol red, 37 °C, 0, 24 and 48 h, ethanol precipitation, RP-UHPLC peak area, n = 3
Method: 0.1 M of purified roseltide rT1 was prepared in 25% human serum in DMEM medium without phenol red. The test samples were incubated at 37 °C. DALK was used as a positive control. Samples were collected at various time points (0, 24 and 48 h). The collected samples were subjected to protein precipitation with 100% ethanol and centrifugation at 180,000 g for 5 min at 4 °C. The supernatant was collected for analysis.

Acid stability = type: physicochemical; settings: in 0.2 M HCl, 37 °C, 0-120 min, RP-UHPLC peak area as % of initial, n = 3
Method: 0.1 M of purified roseltide rT1 was dissolved in 0.2 M HCl or phosphate buffered saline (PBS) (control) and incubated at 37 °C. Samples were collected at various time points (0, 15, 30, 45, 60 and 120 min).

pepsin = pepsin (Sus scrofa, UniProt P00791); settings: 0.1 M peptide, 0.2 M HCl, pepsin 50:1 (w/v), 37 °C, 0-120 min, RP-UHPLC peak area, n = 3
Method: (§1) 0.1 M of purified roseltide rT1 was dissolved in 100 mM Tris buffer (pH 8) and incubated with trypsin (Catalog number: T1426, Roche Applied Science, US) in a 50:1 (w/v) ratio at 37 °C. 0.1 M of purified roseltide rT1 was dissolved in 0.2 M HCl and incubated with pepsin (Catalog number: 03117901001, Roche Applied Science, US) in a 50:1 (w/v) ratio at 37 °C. […] Samples were collected at various time points (0, 15, 30, 45, 60 and 120 min).
(§2) All collected samples from various stability assays were analyzed by RP-UHPLC with a linear gradient of mobile phase A (0.05% TFA/H2O) and mobile phase B (0.05% TFA/ACN) on C18 column (3.6 μm particle size; 2.1 mm internal diameter; 10 cm length) (Phenomenex, US). The resulting peaks were collected and the identified by MALDI-TOF MS. The results were expressed as percentage of initial concentration using the peak area of the UHPLC profile.

trypsin = trypsin (Bos taurus, UniProt P00760); settings: 0.1 M peptide, 100 mM Tris buffer pH 8, trypsin 50:1 (w/v), 37 °C, 0-120 min, RP-UHPLC peak area, n = 3
Method: as §1, §2

[2] = biological target: human neutrophil elastase (human) (UniProt P08246)

Sequence of trypsin (P00760 24-246): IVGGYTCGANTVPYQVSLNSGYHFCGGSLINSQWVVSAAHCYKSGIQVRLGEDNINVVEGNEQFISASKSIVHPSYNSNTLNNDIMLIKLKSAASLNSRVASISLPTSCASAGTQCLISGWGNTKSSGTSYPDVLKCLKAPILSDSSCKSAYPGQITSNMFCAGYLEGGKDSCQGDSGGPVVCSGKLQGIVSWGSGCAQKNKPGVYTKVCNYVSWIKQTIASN
Sequence of pepsin (P00791 60-385): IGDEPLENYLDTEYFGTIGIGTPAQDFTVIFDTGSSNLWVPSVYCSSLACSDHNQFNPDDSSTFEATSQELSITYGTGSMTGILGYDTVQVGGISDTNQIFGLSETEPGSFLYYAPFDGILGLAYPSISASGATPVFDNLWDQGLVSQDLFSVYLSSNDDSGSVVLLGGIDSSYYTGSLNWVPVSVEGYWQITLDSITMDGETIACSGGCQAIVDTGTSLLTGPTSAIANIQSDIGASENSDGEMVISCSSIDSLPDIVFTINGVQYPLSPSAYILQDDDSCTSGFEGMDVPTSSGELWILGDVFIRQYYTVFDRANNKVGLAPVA

Substance	effect on human neutrophil elastase-stimulated cAMP accumulation (PAR2-cAMP-CHO cells)	IC50 [1]	human serum stability (resistance against degradation) (Human serum stability)	acid stability (resistance against degradation) (Acid stability)	pepsin stability (resistance against degradation) (pepsin)	trypsin stability (resistance against degradation) (trypsin)	inhibition of the enzymatic activity of human neutrophil elastase (release of p-nitroanilide from N-methoxysuccinyl-Ala-Ala-Pro-Val p-nitroanilide, 405 nm, 37 °C, 100 mM Tris pH 8.0), IC50 [2]
CIPRGGICLVALSGCCNSPGCIFGICA (also: bicyclic or more (positions not given here)) [roseltide rT1, 27-residue cystine-knot peptide purified from Hibiscus sabdariffa calyces; disulfides Cys1-Cys16, Cys8-Cys21, Cys15-Cys26]	significantly suppressed	470 nM	resistant	resistant	resistant	resistant	
roseltide rT1 (peptide)							0.47 μM
